Laboratory results reported in article PMC10762035, “Molecular basis of human trace amine-associated receptor 1 activation” (Nature Communications, 2024).
Changes are numbered by the printed parent chain. “And” between values parts separate entries of the source, which are not always exact repeats. Equal values may be shown once. Read-outs that look alike come from different tables or passages of the source.

Tests used:
Type in all cases: cell-based
hTA1 T271N = biological target: T1, hTA1 T271N (Homo sapiens, UniProt Q96RJ0, T271N); assay: GloSensor cAMP accumulation assay, T271N mutant; details: for Emax: T271N
T1 construct: expressed in transfected cells; host or cells: HEK293T
T1 sequence (Q96RJ0 1-339 T271N): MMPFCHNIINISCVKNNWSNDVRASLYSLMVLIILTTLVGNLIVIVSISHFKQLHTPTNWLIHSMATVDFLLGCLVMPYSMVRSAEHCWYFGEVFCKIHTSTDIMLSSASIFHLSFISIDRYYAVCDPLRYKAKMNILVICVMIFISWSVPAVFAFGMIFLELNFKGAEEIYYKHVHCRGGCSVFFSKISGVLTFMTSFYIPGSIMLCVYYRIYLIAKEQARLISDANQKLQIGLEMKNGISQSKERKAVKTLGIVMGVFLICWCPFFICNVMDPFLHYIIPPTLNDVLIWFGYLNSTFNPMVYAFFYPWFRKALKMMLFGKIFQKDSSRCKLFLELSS

hTA1 I290N = biological target: T2, hTA1 I290N (Homo sapiens, UniProt Q96RJ0, I290N); assay: GloSensor cAMP accumulation assay, I290N mutant;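 note: cells transiently co-expressing hTA1 and the GloSensor cAMP biosensor, luminescence read 30 min after compound addition at room temperature, efficacy scaled to the maximal β-PEA response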
T2 construct: expressed in transfected cells; host or cells: HEK293T
T2 sequence (Q96RJ0 1-339 I290N): T1 sequence (Q96RJ0 1-339 T271N) with N271T, I290N

hTA1 W264F = biological target: T3, hTA1 W264F (Homo sapiens, UniProt Q96RJ0, W264F); assay: GloSensor cAMP accumulation assay, W264F mutant;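 note: cells transiently transfected with receptor plus GloSensor, luminescence read 30 min after agonist addition at room temperature, concentration-response curves fitted by log(agonist) vs response regression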
T3 construct: expressed in transfected cells; host or cells: HEK293T
T3 sequence (Q96RJ0 1-339 W264F): T1 sequence (Q96RJ0 1-339 T271N) with W264F, N271T

hTA1 b2N = biological target: T4, hTA1 b2N (Homo sapiens, UniProt Q96RJ0); assay: GloSensor cAMP accumulation assay, b2N construct; details: b2N; n=2; read-out: Span ± SEM (Emax normalized to β-PEA)
T4 construct: read by me as the first 25 residues of β2AR (N); expressed in transfected cells; host or cells: HEK293T

hTA1 C178S = biological target: T5, hTA1 C178S (Homo sapiens, UniProt Q96RJ0, C178S); assay: GloSensor cAMP accumulation assay, C178S mutant; details: for C178S - Normalized Luminescence Counts (N=2): log[Compound], single replicates
T5 construct: expressed in transfected cells; host or cells: HEK293T
T5 sequence (Q96RJ0 1-339 C178S): T1 sequence (Q96RJ0 1-339 T271N) with C178S, N271T

hTA1 C13S = biological target: T6, hTA1 C13S (Homo sapiens, UniProt Q96RJ0, C13S); assay: GloSensor cAMP accumulation assay, C13S mutant
T6 construct: expressed in transfected cells; host or cells: HEK293T
T6 sequence (Q96RJ0 1-339 C13S): T1 sequence (Q96RJ0 1-339 T271N) with C13S, N271T

T4 sequence (Q96RJ0 with tags, fused parts or gaps): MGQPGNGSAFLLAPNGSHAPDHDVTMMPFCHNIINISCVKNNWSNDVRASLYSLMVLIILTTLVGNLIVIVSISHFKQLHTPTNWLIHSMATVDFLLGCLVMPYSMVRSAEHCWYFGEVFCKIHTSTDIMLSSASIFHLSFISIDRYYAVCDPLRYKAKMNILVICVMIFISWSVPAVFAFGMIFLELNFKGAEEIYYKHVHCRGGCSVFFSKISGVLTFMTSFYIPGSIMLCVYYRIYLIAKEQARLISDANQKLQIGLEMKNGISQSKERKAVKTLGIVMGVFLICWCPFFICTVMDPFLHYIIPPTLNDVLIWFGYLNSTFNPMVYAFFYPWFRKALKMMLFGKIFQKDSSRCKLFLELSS

In the case of CCc1[nH]nc(C(=O)Nc2ccc([C@H]3CNCCO3)cc2)c1C [ralmitaront], the “ΔpEC50 values (each mutant value - WT average), Mean” value (hTA1 T271N; T271N mutant minus WT average, Figure 5B) is reported as 0.04727 and -0.1115, the “Emax values, Mean” value (hTA1 T271N; T271N mutant, Figure 5B, β-PEA = 100, each row one independent experiment (3 replicates)) is reported as 121.192 and 53.6921 and the Emax (hTA1 T271N; n=2, read-out: Span ± SEM (Emax normalized to β-PEA)) is reported as 87.4 ± 33.8%. For the same molecule, the Emax (hTA1 T271N; relative to β-PEA, read-out: Emax) was 87.4%, the Emax (hTA1 I290N; I290N, n=2, read-out: Span ± SEM (Emax normalized to β-PEA)) was 43.6 ± 5.35% and the “cAMP accumulation response, single replicate values (source data, Supplementary Figure 5)” value (hTA1 I290N; hTA1 I290N (N=2), log[Compound], M = -5) was 44.9736 and 36.855 and 39.1073 and 50.4588. For the same molecule, the “Emax values, Mean” value (hTA1 I290N; hTA1 I290N mutant, β-PEA set to 100, each grid row a separate experiment, 3 replicates) was 38.2871, the Emax (hTA1 I290N; hTA1 I290N mutant, β-PEA set to 100, each grid row a separate experiment, 3 replicates, read-out: Emax values (Mean)) was 49% and the “ΔEmax values (each mutant value - WT average)” value (hTA1 W264F; W246F mutant (so in the source) minus WT average) was -7.264. For the same molecule, the “Emax values, Mean” value (hTA1 W264F; W246F mutant (so in the source), β-PEA = 100, each line an independent experiment, 3 replicates) was 47.4013, the Emax (hTA1 W264F; W246F mutant (so in the source), β-PEA = 100, each line an independent experiment, 3 replicates, read-out: Emax values (Mean)) was 32.8% and the Emax (hTA1 W264F; W264F, n=2, read-out: Span ± SEM (Emax normalized to β-PEA)) was 40.1 ± 7.28%. The Emax (hTA1 b2N) was 82.5 ± 4.39%, the “ΔpEC50 values (each mutant value - WT average), Mean” value (hTA1 C178S; C178S, each row one experiment (N=2), 3 replicates) was -0.4487 and -0.0445 and the Emax (hTA1 C178S; C178S, n=2, read-out: Span ± SEM (Emax normalized to β-PEA)) was 69.5 ± 2.9%. The Emax (hTA1 C178S; C178S, relative to β-PEA, read-out: Emax) was 69.5%, the “Emax values, Mean” value (hTA1 C178S; C178S, β-PEA = 100, each row one experiment (N=2), 3 replicates) was 72.4383 and the Emax (hTA1 C178S; C178S, β-PEA = 100, each row one experiment (N=2), 3 replicates, read-out: Emax values, Mean) was 66.6%. The “C178S - Normalized Luminescence Counts (N=2)” value (hTA1 C178S; M = -5) was 73.8012 and 62.4927 and 60.9506 and 66.8043 and 64.022 and 61.0303, the “C178S - Normalized Luminescence Counts (N=2)” value (hTA1 C178S; M = -5.522) was 57.6328 and 63.2871 and 59.3151 and 75.9888 and 75.2109 and 62.2569 and the “C178S - Normalized Luminescence Counts (N=2)” value (hTA1 C178S; M = -6) was 43.2869 and 48.3804 and 55.2496 and 74.2835 and 69.4968. The “C178S - Normalized Luminescence Counts (N=2)” value (hTA1 C178S; M = -6.522) was 30.9035 and 28.8942 and 35.67 and 44.4265 and 49.1234 and 56.9916, the “C178S - Normalized Luminescence Counts (N=2)” value (hTA1 C178S; M = -7) was 14.8753 and 16.3239 and 23.7072 and 27.2542 and 34.494 and 27.6431 and the “C178S - Normalized Luminescence Counts (N=2)” value (hTA1 C178S; M = -7.522) was 4.642 and 7.866 and 7.3986 and 13.4924 and 12.7145 and 13.5821. For the same molecule, the “C178S - Normalized Luminescence Counts (N=2)” value (hTA1 C178S; M = -8) was 1.277 and 2.445 and 2.959 and 5.594 and 6.073 and 4.936, the “C178S - Normalized Luminescence Counts (N=2)” value (hTA1 C178S; M = -8.522) was -0.2183 and 0.7163 and 2.0247 and 0.7179 and 1.526 and 2.842 and the “C178S - Normalized Luminescence Counts (N=2)” value (hTA1 C178S; M = -9) was -0.3585 and 0.1555 and -0.03139 and 0.4785 and 0.3289 and 2.214. The “C178S - Normalized Luminescence Counts (N=2)” value (hTA1 C178S; M = -9.522) was -1.433 and 1.137 and -0.6389 and -0.0001415 and -0.6284 and -0.3292, the “C178S - Normalized Luminescence Counts (N=2)” value (hTA1 C178S; M = -10) was -1.1529 and -1.2 and -1.106 and 0.05969 and -0.9575 and -1.5259 and the “C178S - Normalized Luminescence Counts (N=2)” value (hTA1 C178S; M = -10.522) was -0.5454 and -0.2183 and -0.8258 and -2.334 and -1.855 and -2.154. For the same molecule, the “C178S - Normalized Luminescence Counts (N=2)” value (hTA1 C178S; M = -11) was -0.3585 and -0.2183 and -0.4987 and 0.6281 and 0.3589 and 0.4785, the “C178S - Normalized Luminescence Counts (N=2)” value (hTA1 C178S; M = -11.522) was -0.3585 and -0.07812 and 0.1555 and 0.5384 and -0.08989 and -0.419 and the “C178S - Normalized Luminescence Counts (N=2)” value (hTA1 C178S; M = -12) was -0.966 (2×) and -0.3585 and -0.8079 and -2.005 and -0.9874. The “C178S - Normalized Luminescence Counts (N=2)” value (hTA1 C178S; M = -12.522) was 1.09 and -0.2183 and -0.8725 and 0.3888 and -1.137 and -2.364, the “ΔpEC50 values (each mutant value - WT average)” value (hTA1 C13S; C13S) was -0.1563 and -0.05083 and the Emax values (hTA1 C13S; C13S, Mean of fit per experiment) was 28.9629. For the same molecule, the Emax (hTA1 C13S; C13S, Mean of fit per experiment, read-out: Emax values) was 23.8%, the Emax (hTA1 C13S; C13S, n=2, read-out: Span ± SEM (Emax normalized to β-PEA)) was 26.4 ± 2.6% and the “C13S - Normalized Luminescence Counts (N=2)” value (hTA1 C13S; log[Compound], M = -5, single wells) was 24.7419 and 34.2578 and 19.4511 and 28.8102 and 35.1294 and 22.0805.
